Experimental findings from the METLIN SMRT retention time set (Domingo-Almenara et al. 2019) are described below.

The data set in a line: gradient 5% acetonitrile 3 min, to 50% in 2 min, to 85% in 15 min, held 3 min, 100 µL/min. The following applies: column: Zorbax Extend-C18 2.1 x 50 mm; eluents: water / acetonitrile, 0.1% formic acid. Put shortly: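 The mobile phases were water and acetonitrile, each with 0.1% formic acid, pumped at 100 μL/min through a Zorbax Extend-C18 column (2.1 × 50 mm, 1.8 μm). Pure standards were injected as mixtures of ~100 molecules and detected by a quadrupole time-of-flight mass spectrometer in positive and negative ionization mode. Retention time came from computationally picked adduct peaks, each inspected by hand.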
Compound `CCc1noc(-c2ccc(SCC(=O)N3CCC(C)CC3)nc2)n1` displayed an RP-LC retention time of 975 s.
On to `Cc1cc(F)ccc1NS(=O)(=O)c1cc2c(s1)CCN(C(=O)C1CC1)C2`, for which the RP-LC retention time turned out to be 839 s.
The compound `CCC(C)NC(=O)c1nc(Cn2c(=O)oc3ccc(Cl)cc32)no1` (centres undefined) displayed an RP-LC retention time of 922 s.
Turning to `CS(=O)(=O)N1CCC(C(=O)Nc2ccc(F)cc2)Oc2ccccc21` (centres undefined), the RP-LC retention time was 817 s.
Under `CC(C)S(=O)(=O)c1ccc(CC(=O)N2CCCC(c3nnc(C(F)(F)F)o3)C2)cc1` (centres undefined) stands 750 s; under `CCC1Oc2ccc(S(=O)(=O)N3CCC(C(=O)N(C)Cc4ccco4)CC3)cc2NC1=O` (centres undefined), 800 s; under `Cc1cccc(N2CCN(Cc3nc(-c4ccc(N5CCCCC5)nc4)no3)CC2)c1C`, 1160 s.
The compound `O=C(NCCc1nc(-c2ccccc2)no1)c1sc2cccc(Cl)c2c1Cl` displayed an RP-LC retention time of 1200 s.
Next, `Cc1occc1C(=O)N[C@@H]1CN(S(C)(=O)=O)C[C@H]1CN(C)C`: 573 s; `O=C(NC1CC1)[C@@H]1C[C@H](Oc2cccnc2)CN1C(=O)CC1CCCC1`: 605 s.
Under `COCCNC(=O)c1ccc2c(c1)nc(C)n2-c1ccc(Br)cc1` stands 666 s; under `COc1ccc(-c2nnc(-c3ccc(Cl)c(S(=O)(=O)N4CCC(C)CC4)c3)o2)cc1OC`, 1180 s.
Next, `CCn1c(=O)oc2cc(-c3noc(-c4ccc(OC)c(OC)c4)n3)ccc21`: 990 s.
Consider `CCOCC(=O)N(C)CCc1noc(-c2ccc(C(=O)N3CCCC3)cc2)n1`, for which the RP-LC retention time was 648 s.
Next, `CCc1nc2c(c(=O)n1CC(=O)NC(C)(C)C)CN(Cc1ccccc1)CC2`: 605 s; `CC1CS(=O)(=O)N(c2cccc(C(=O)N3CCCc4ccccc43)c2)C1=O` (centres undefined): 781 s.
Take `Cc1ccnc(NC(c2ccccc2)c2ccc3cccnc3c2O)c1` (centres undefined): the RP-LC retention time turned out to be 752 s.
Under `Cc1cc(N2CCN(C)CC2)n2nc(CN3CCN(c4cccc(Cl)c4)CC3)nc2n1` stands 568 s; under `Cc1ccc(N2C(=O)N(Cc3cccc(F)c3)S(=O)(=O)c3cccnc32)cc1`, 1080 s.
For `Cc1nn(CC(=O)N2CCC3(CC2)OCCO3)c(=O)c2nc(-c3ccccc3)sc12`, the RP-LC retention time came to 970 s.
`COc1ccc(Cl)cc1C(=O)NC1CCN(c2cc(-c3ccccc3)[nH]n2)C1` (centres undefined) yielded an RP-LC retention time of 784 s.
In turn, `CCOC(=O)C1CCN(C(=O)CCC(=O)N2CCCn3nc(C)cc32)CC1` had an RP-LC retention time of 646 s.
Take `O=C(NC1CCCc2ccccc21)C1CCN(Cc2noc(-c3ccc(F)cc3)n2)CC1` (centres undefined): the RP-LC retention time came out at 713 s.
Next, `Cc1c(C(=O)NC(C)C)cnn1-c1cc(-c2nc(C3CC3)no2)ccn1`: 865 s.
With `C[C@@H](NCCc1ccc(O)cc1)[C@@H](O)c1ccc(O)cc1`, the RP-LC retention time is 362 s.
`Cn1c(=O)c2nc(S(=O)(=O)CCC(=O)Nc3ccc(F)c(F)c3)n(C)c2n(C)c1=O` yielded an RP-LC retention time of 758 s.
For `Cc1ccc(-c2noc(-c3ccc(=O)n(CCC(C)C)n3)n2)cc1`, the RP-LC retention time is 1280 s.
`CCOC(=O)C1=CN(C)S(=O)(=O)N=C1C` yielded an RP-LC retention time of 695 s.
As for `Cc1cc(OCC(=O)Nc2ccc(Br)cc2F)nc(N2CCCCC2)n1`, the RP-LC retention time was determined as 666 s.
With `O=C(Nc1cnc(N2CCCCCC2)nc1)c1ccc(F)cc1F`, the RP-LC retention time is 954 s.
`CCc1ccccc1NC(=O)NCC(c1cccnc1)c1c[nH]c2ccccc12` (centres undefined) returned an RP-LC retention time of 669 s.
As to `Cc1cccn2c(=O)cc(CN(Cc3ccccc3)Cc3ccco3)nc12`, the RP-LC retention time was found to be 676 s.
Under `CCC(=O)N1c2ccc(S(=O)(=O)CCC(=O)N3CCN(c4ccccc4F)CC3)cc2CC1C` (centres undefined) stands 894 s.
Next, `Nc1nc(-c2ccccc2)nn1C(=O)c1ccccc1F`: 862 s; `CC(NC(=O)Cc1cn(C)c2ncccc12)c1ccc(F)cc1` (centres undefined): 695 s.
For `CCOC(=O)c1[nH]c(C)c(CCC(=O)N2CCC(C(=O)N3CCOCC3)CC2)c1C`, the RP-LC retention time came out at 646 s.
In turn, `CC(C)CN1CCn2cc(C(=O)N3CCN(c4ccccc4)CC3)nc2C1` showed an RP-LC retention time of 605 s.
Next, `Cc1ccc2nc(-c3cccc(Br)c3)c(Nc3ccc4c(c3)OCCO4)n2c1`: 749 s.
Consider `COc1ccc(C(=O)N2CCCC2c2nc(-c3ccc(OC)c(OC)c3)no2)cc1OC` (centres undefined), for which the RP-LC retention time was 817 s.
Under `CCOC(=O)CC(=O)Nc1cc2c(cc1N1CCOCC1)n(C)c(=O)n2C` stands 660 s; under `CN(C)c1ccc(-c2nc3cnccn3c2Nc2cccc(C(F)(F)F)c2)cc1`, 887 s.
For the compound `Cc1c(CN2CCC[C@H]2c2nc(-c3ccccc3)n[nH]2)cnn1C`, the RP-LC retention time was determined as 584 s.
Under `CCc1ccc2c(C)nc(NC3=NC(C)(C)C=C(C)N3)nc2c1` stands 636 s; under `Cc1ccc(C)c(S(=O)(=O)N2CCCCCC2c2nnc(C)o2)c1` (centres undefined), 908 s.
`CC1(C(=O)NCc2ccccc2)CCCN(C(=O)Nc2ccccc2Br)C1` (centres undefined): the RP-LC retention time was determined as 947 s.
Next, `O=C(CSc1nccnc1Sc1ccccc1)N1CCN(c2ccccn2)CC1`: 688 s; `COc1ccc(C(=O)N2CCc3nc(-c4ccc(Cl)cc4)ncc3C2)cc1F`: 1050 s; `COc1cccc(CNC(=O)c2c(C)oc3ccn(C)c(=O)c23)c1`: 844 s.
Next, `CC1CCN(S(=O)(=O)c2ccc3nn(Cc4ccccc4Cl)c(=O)n3c2)CC1`: 1040 s; `Cc1ccc(-c2coc(-c3ccc(NC(=O)NCc4ccc(F)cc4)cc3)n2)c(C)c1`: 1180 s.
Next, `COc1ccc(-c2ncc3c(n2)CCN(C(=O)Nc2ccc(C)cc2C)C3)cc1`: 644 s.
For the compound `Cc1nc(N2CCOCC2)c2c(C(=O)Nc3cccc(Cl)c3)c(C)oc2n1`, the RP-LC retention time turned out to be 890 s.
Under `Cn1nc(-c2nnc(-c3ccc(F)cc3)o2)c2c1CCN(S(=O)(=O)c1ccc3c(c1)CCCC3)C2` stands 1090 s.
`CCc1ccccc1NC(=O)N1CCN(c2cc(C)nc(N3CCCC3)n2)CC1`: the RP-LC retention time turned out to be 670 s.
The compound `CC(C)n1cnc2cc(CNC(=O)c3cccc(C(F)(F)F)c3)ccc21` yielded an RP-LC retention time of 675 s.
As to `CC(Oc1ccc(=O)n(-c2ccc(F)cc2)n1)C(=O)Nc1ccccc1Cl` (centres undefined), the RP-LC retention time was found to be 826 s.
Next, `O=C(CSc1ncnc2c1cnn2-c1ccc(Cl)cc1)NCc1ccco1`: 954 s; `COc1ccc(C(=O)NC2CCN(c3cc(-c4cccs4)[nH]n3)C2)cn1` (centres undefined): 676 s.
Under `CCOc1ccc(-c2[nH]ncc2CNS(=O)(=O)Cc2ccccc2Cl)cc1` stands 846 s; under `COC(=O)Nc1nc2ccc(C(=O)c3ccc(F)cc3)cc2[nH]1`, 864 s; under `Cc1ccc(CN2CCC(c3nc(-c4cnccn4)n[nH]3)CC2)s1`, 570 s.
Under `CSc1ncc2ncn(C3OC(CO)C(O)C3O)c2n1` (centres undefined) stands 623 s; under `O=C1CCCN1CCCN(CC(=O)N1CCNCC1)C(=O)c1ccc(C(F)(F)F)cc1`, 602 s; under `O=C(Nc1ccc2c(c1)CCC2)c1ccnc(N2CCNC(c3ccccc3)C2)c1` (centres undefined), 742 s.
In turn, `Cc1cc(C)cc(NC(=O)C2CCN(c3cncnc3N3CCOCC3)CC2)c1` showed an RP-LC retention time of 657 s.
Under `CN(CC1(C)CCOCC1)C(=O)COc1ccc(F)cc1` stands 770 s; under `CNC(=O)C1CN(S(=O)(=O)c2cccc(F)c2)CC12CCCC2` (centres undefined), 778 s; under `COc1ccc(C(=O)N2CCC3(CC2)NC(=O)c2ccc(F)cc2N3C)c(OC)c1`, 715 s.
On to `Cc1oc2ccn(Cc3ccccc3F)c(=O)c2c1C(=O)NCc1cccc(F)c1`, for which the RP-LC retention time stood at 726 s.
In turn, `COc1cccc(-c2nnc(Cc3nc(-c4cccs4)no3)o2)c1` displayed an RP-LC retention time of 929 s.
`Cc1ccc(-n2nccn2)c(C(=O)N2CCN(c3nc4cc(Cl)ccc4o3)CC[C@H]2C)c1` came in with an RP-LC retention time of 1080 s.
Next, `O=c1oc2cc(O)c(O)cc2c2c1CCCC2`: 684 s.
`O=C(NCc1csc(-c2ccccc2)n1)C1CCCN(c2cc(-n3cccn3)ncn2)C1` (centres undefined) registered an RP-LC retention time of 813 s.
The compound `Cc1nc(-c2cc(S(=O)(=O)N3CCN(c4ccccc4F)CC3)c(C)s2)cs1` registered an RP-LC retention time of 1210 s.
In turn, `O=C(Nc1cccc(OCc2nnc(-c3ccc(Cl)cc3)o2)c1)c1cccnc1` gave an RP-LC retention time of 811 s.
Consider `Cn1cc(C(CNC(=O)Nc2cccc(Br)c2)c2cccnc2)c2ccccc21` (centres undefined), for which the RP-LC retention time turned out to be 755 s.
Next, `CC(C)C(=O)N1CCN(c2ccc(=O)n(-c3ccc(Cl)cc3)n2)CC1`: 767 s; `CCOC(Cn1c(-c2ccc(OC)cc2)nc2ccccc21)OCC`: 713 s; `O=C(c1ccc(Cl)s1)N1CC(c2nc(-c3cccc(C(F)(F)F)c3)no2)C1`: 1090 s.
